Measured values as given in patent US20240368191A1, “HETEROCYCLIC COMPOUNDS AND USES THEREOF” (Kumquat Biosciences Inc., priority 2021, published 2024).

Legend:
[1] = Metabolic (microsomal) stability assay; conditions: pooled liver microsomes, pH 7.4
[2] = target: T1, KRAS G12D 1-169 (His-tagged, GDP-loaded) (Homo sapiens, UniProt P01116, G12D); experiment: Covalent modification of KRAS protein by intact-protein LC-MS; assay type: binding; conditions: comparable or same conditions as K-Ras G12S
T1 construct: His -tagged GDP-loaded G12D 1-169; made in house; host or cells: E. coli, e.g. BL21 (DE3)
T1 sequence (P01116 1-169 isoform P01116-2 G12D): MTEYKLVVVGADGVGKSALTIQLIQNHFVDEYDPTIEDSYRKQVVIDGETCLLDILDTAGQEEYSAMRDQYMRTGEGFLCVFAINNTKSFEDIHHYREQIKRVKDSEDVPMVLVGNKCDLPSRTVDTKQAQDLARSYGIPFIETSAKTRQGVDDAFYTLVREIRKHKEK
Method: Test compounds are prepared as 10 mM stock solutions in DMSO (Fisher cat #BP231-100). KRAS protein (His -tagged GDP-loaded wildtype 1-169, His -tagged GDP-loaded G12S 1-169 or His -tagged GDP-loaded G12D 1-169) is diluted to ˜2 μM in appropriate buffer (e.g., a Hepes buffer at physiological conditions). For testing KRAS modification, compounds are diluted to 50× final test concentration in DMSO in 96-well storage plates. 2 μl of the diluted 50× compounds are added to appropriate wells in the PCR plate (Fisher cat #AB-0800). ˜49 μl of the stock protein solution is added to each well of the 96-well PCR plate. Reactions are mixed carefully. The plate is sealed well with aluminum plate seal, and stored in drawer at room temperature for 24 hrs. 5 μl of 2% formic acid (Fisher cat #A117-50) in MilliQ H2O is then added to each well followed by mixing with a pipette. The plate is then resealed with aluminum seal and stored until mass spectrometry analysis.
The extent of covalent modification of KRAS proteins was determined by liquid chromatography electrospray mass spectrometry analysis of the intact proteins on a Thermo Q-Exactive Plus mass spectrometer. 20 μl of sample was injected onto a bioZen 3.6 μm Intact C4 column (Phenomenex cat #00B-4767-AN) placed in a column oven set to 40° C. and separated using a suitable LC gradient from ˜20% to ˜60% solvent B. Solvent A was 0.1% formic acid and solvent B was 0.1% formic acid in acetonitrile. HESI source settings were set to 40, 5 and 1 for the sheath, auxiliary and sweep gas flow, respectively. The spray voltage was 4 kV, and the capillary temperature was 320° C. S-lens RF level was 50 and auxiliary gas heater temperature was set to 200° C. The mass spectrometry was acquired using a scan range from 650 to 1750 m/z using positive polarity at a mass resolution of 70,000, AGC target of 1e6 ions and maximum injection time of 250 ms. The recorded protein mass spectrum was deconvoluted from the raw data file using Protein Deconvolution v4.0 (Thermo). The protein mass and adduct masses were exported with their peak intensities. The peak intensities for the unmodified and modified protein were used to calculate the percent covalent modification of the KRAS protein based on the following equation: % KRAS protein modification=((KRAS−compound)/(KRAS)+(KRAS−Compound))*100.

Row | covalent labeling of K-Ras G12D [2] | SMILES | half-life at 0.5 μM [1]
1 |  | N#Cc1c(N)sc2c(F)ccc(-c3c(Cl)cc4c(N5CCC6CN(C(=O)Nc7ncccn7)CCC65)nc(OC[C@@]56CCCN5C[C@H](F)C6)nc4c3F)c12 (single isomer, unassigned) [Compound A271] | > 10 min
2 |  | C#Cc1c(F)ccc2cc(O)cc(-c3ncc4c(N5CCOC6(CN(C(=O)n7cncn7)C6)C5)nc(OC[C@@]56CCCN5C[C@H](F)C6)nc4c3F)c12 [Compound A106, (8-(7-(8-ethynyl-7-fluoro-3-hydroxynaphthalen-1-yl)-8-fluoro-2-(((2R,7aS)-2-fluoro-tetrahydro-1H-pyrrolizin-7a(5H)-yl)methoxy)pyrido-[4,3-d]pyrimidin-4-yl)-5-oxa-2,8-diazaspiro[3.5]nonan-2-yl)(1H-1,2,4-triazol-1-yl)-methanone] | > 10 min
3 |  | N#Cc1c(N)sc2c(F)ccc(-c3c(Cl)cc4c(N5CCCC6(CN(C(=O)n7cncn7)C6)C5)nc(OC[C@@]56CCCN5C[C@H](F)C6)nc4c3F)c12 [Compound A129, 4-(4-(2-(1H-1,2,4-triazole-1-carbonyl)-2,6-diazaspiro[3.5]-nonan-6-yl)-6-chloro-8-fluoro-2-(((2R,7aS)-2-fluorotetrahydro-1H-pyrrolizin-7a(5H)-yl)meth-oxy)quinazolin-7-yl)-2-amino-7-fluorobenzo[b]thiophene-3-carbonitrile] | > 10 min
4 |  | N#Cc1c(N)sc2c(F)ccc(-c3c(Cl)cc4c(N5CCOC6(CN(C(=O)n7cncn7)C6)C5)nc(OC[C@@]56CCCN5C[C@H](F)C6)nc4c3F)c12 [Compound A132, 4-(4-(2-(1H-1,2,4-triazole-1-carbonyl)-5-oxa-2,8-diaza-spiro[3.5]nonan-8-yl)-6-chloro-8-fluoro-2-(((2R,7aS)-2-fluorotetrahydro-1H-pyrrolizin-7a(5H)-yl)methoxy)quinazolin-7-yl)-2-amino-7-fluorobenzo-[b]thiophene-3-carbonitrile] | > 10 min
5 |  | Nc1nc2c(-c3c(Cl)cc4c(N5CCCC6(CN(C(=O)n7cncn7)C6)C5)nc(OC[C@@]56CCCN5C[C@H](F)C6)nc4c3F)ccc(F)c2s1 [Compound A136, (6-(7-(2-amino-7-fluorobenzo-[d]thiazol-4-yl)-6-chloro-8-fluoro-2-(((2R,7aS)-2-fluoro-tetrahydro-1H-pyrrolizin-7a(5H)-yl)methoxy)quinazolin-4-yl)-2,6-diazaspiro[3.5]nonan-2-yl)(1H-1,2,4-triazol-1-yl)-methanone] | > 10 min
6 |  | N#Cc1c(N)sc2c(F)ccc(-c3c(Cl)cc4c(N5CCN(CC6CC6)C6(CN(C(=O)n7cncn7)C6)C5)nc(OC[C@@]56CCCN5C[C@H](F)C6)nc4c3F)c12 [Compound A139, 2-amino-4-(6-chloro-4-(5-(cyclopropylmethyl)-2-(1H-1,2,4-triazole-1-carbonyl)-2,5,8-triazaspiro[3.5]nonan-8-yl)-8-fluoro-2-(((2R,7aS)-2-fluoro-tetrahydro-1H-pyrrolizin-7a(5H)-yl)methoxy)quinazolin-7-yl)-7-fluorobenzo[b]thiophene-3-carbonitrile] | > 10 min
7 | essentially no detectable labeling | Cc1ncn(C(=O)N2CC3CCN(c4nc(OC[C@@]56CCCN5C[C@H](F)C6)nc5c(F)c(-c6ccc(F)c7sc(N)c(C#N)c67)c(Cl)cc45)C3C2)n1 (stereo partly drawn) [Compound A304, 2-amino-4-(6-chloro-8-fluoro-2-(((2R,7aS)-2-fluorotetrahydro-1H-pyrrolizin-7a(5H)-yl)meth-oxy)-4-(5-(3-methyl-1H-1,2,4-triazole-1-carbonyl)hexahydro-pyrrolo[3,4-b]pyrrol-1(2H)-yl)quinazolin-7-yl)-7-fluoro-benzo[b]thiophene-3-carbonitrile] | 
